Laboratory results: US20090325960A1, “METHOD FOR TREATING INFLAMMATORY DISEASES USING RHO KINASE INHIBITOR COMPOUNDS” (priority 2008, published 2009)
Where two headings read alike, the source gives them in different places.

Columns and labels:
[1] = system: ova-sensitized, ova-challenged BALB/c mice; experiment: Prevention of airway hyperreactivity (Penh, methacholine) in mouse ovalbumin sensitization model; format: in vivo; conditions: for airway hyperreactivity to metacholine on Day 32: oral 15 μMol/kg once a day; for airway hyperreactivity: intratracheal once a day
Description: The anti-inflammatory dosing paradigm consists of dosing the animals once a day starting on day 27 and finishing on either day 30 or 31 (1 hr prior to the aerosolized ovalbumin challenges on days 28 to 30) but not on day 32 when hyperreactivity evaluation occurs. […] Exposure to the methacholine doses consisted of a 3 minute period during which a nebulizer was aerosolizing the methacholine and an additional 3 minute period following the cessation of nebulization. […] Enhanced pause (Penh), a unitless index of airway hyperreactivity, is derived from the expiratory side of the respiratory waveform measured via the plethysmograph and is used as an indirect measure of airway resistance and hyperreactivity. […] Following the methacholine dose response, BALF was collected and all animals were anesthetized, bled and euthanized. […] The Penh value at each of the dose levels of methacholine represents the 6-minute average response. Change from baseline (CFB) in Penh was calculated at each methacholine dose and the area under the curve (AUC) for these CFB values was calculated using the trapezoidal rule. This same approach was applied for each mouse across multiple experiments. […] Data from equal experimental conditions across experiments performed on different days were pooled for statistical analysis and data reporting. […] A random intercept for each experiment was assumed to account for possible similarities of the results obtained from a given experiment (i.e., as a “blocking effect”). […] For FIG. 11, linear AUC values from compound treated mice were reported as a percent of linear AUC values from vehicle-treated ovalbumin-sensitized/ovalbumin-challenged (asthmatic) mice.

murine eosinophils = experiment: Murine eosinophil chemotaxis (eotaxin-induced); format: cell-based, mouse; conditions: 10 nM eotaxin challenge
Description: Mouse Eosinophil Isolation: Bronchoalveolar lavage was collected from ovalbumin sensitized and challenged mice in a volume of 2.5 mL lavage buffer. The lavage buffer was 0.9% saline with 10% fetal bovine serum. The pooled lavages were maintained on ice until use. The murine eosinophils were isolated using MACS cell separation (Miltenyi Biotech) by depletion of B cells and T cells by positive selection following incubation with antibody conjugated magnetic beads specific for CD45-R (B220) and CD90 (Thy 1.2), which bind B cells and T cells, respectively.
(§1) In Vitro Chemotaxis: Eosinophil chemotaxis was assessed using a modified Boyden Chamber (Neuroprobe, 96-well) with a 5 μm pore membrane. The ability of the tested compounds to block chemotaxis induced by a 10 nM eotaxin challenge (mouse) or 1 nM eotaxin challenge (human) during one hour incubation at 37° C. with 5% CO2 was assessed.

[2] = system: ova-sensitized, ova-challenged BALB/c mice; experiment: In vivo anti-inflammatory activity, mouse ovalbumin sensitization model (BALF cells and cytokines); conditions: for airway eosinophil infiltration (eosinophils per ml of BALF): dosed orally to day 31, anti-inflammatory dosing paradigm
Description: Upon arrival, the animals were randomized into groups of five males per cage and assigned to a dosing group. Animals were quarantined for 7 days under test conditions. […] Animals were sensitized on day 0 and 14 of study by an intraperitoneal injection with 20 μg of ovalbumin (ova) and 2.0 mg aluminum hydroxide (alum) which initiates the development of a specific T-helper (Th) cells type 2 resulting in asthmatic animals (denoted as Ova in the fugures). One group of animals received an injection of saline to use as control animals (denoted as normal in the figures). […] Aerosol challenge consists of using an Aerogen Aeroneb nebulizer and controller with a particle size of 4-6 μm mass median aerodynamic diameter (MMAD) with a distribution of 400 μl per minute. This aerosol challenge is necessary to target the Th2-driven allergic inflammation in the lower airways.
The anti-inflammatory dosing paradigm (FIG. 5) was utilized to evaluate the anti-inflammatory effects of experimental compounds. […] On day 32 of the experiment, after measurement of airway hyperreactivity, BALF was collected and all animals were anesthetized, bled and euthanized.
Bronchoalveolar lavage fluid (BALF) was collected by infusing 3.0 ml of saline with 10% fetal calf serum into the lungs via the trachea and then withdrawing the fluid. The total amount of cells/ml of BALF fluid was determined via manual cell count on hemocytometer. The BALF was centrifuged, supernatant removed and analyzed for cytokine concentrations as described below, and cell pellet reconstituted in 500 μL of fluid. Cytospin slides were prepared from the cell pellet using 100 μL of fluid and spinning samples for 5 minutes at 5000 rpms in a cytospin centrifuge, Following Hema3 stain, relative percentages of individual leukocytes were determined on a 200 cell count for each sample. The final concentration of individual leukocyte cell types per ml of BALF was determined by multiplication of the relative percentage of individual leukocytes with the total amount of cells/ml of BALF fluid.
The concentrations of cytokines in the BALF samples were determined using commercially available Bio-plex kits (Bio-Rad) for the detection of mouse IL-5, IL-13, and Eotaxin. The analysis of cytokine levels was measured using the Bio-Plex 200 (Bio-Rad) system according to the manufacturer's instructions.

human eosinophils = experiment: Human eosinophil chemotaxis (eotaxin-induced); format: cell-based; conditions: 1 nM eotaxin challenge
Source text: Human Eosinophil Isolation: Peripheral blood from healthy human volunteers was collected and the PMNs separated via Ficoll-paque density centrifugation followed by hypotonic lysis of the red blood cells. Subsequently, the human eosinophils were isolated from the cell suspension via StemCell Technologies Human Eosinophil Enrichment kit (Cat. No 19256) according to the manufacturer's recommendations. Briefly, unwanted cells were specifically labeled with dextran-coated magnetic nanoparticles using bispecific Tetrameric Antibody Complexes (TAC) directed against cell surface antigens on human blood cells: CD2, CD3, CD14, CD16, CD19, CD20CD36, CD56, CD123, glycophorin A and dextran. The unwanted cells are then separated from the unlabelled eosinophils using the EasySep® magnetic isolation procedure.
as §1

Mnk2 = molecular target: T1, Mnk2 (Homo sapiens, UniProt Q9HBH9); format: biochemical
T1 construct: purchased Upstate, Millipore Bioscience Division (KinaseProfiler service)
T1 sequence (Q9HBH9 whole entry): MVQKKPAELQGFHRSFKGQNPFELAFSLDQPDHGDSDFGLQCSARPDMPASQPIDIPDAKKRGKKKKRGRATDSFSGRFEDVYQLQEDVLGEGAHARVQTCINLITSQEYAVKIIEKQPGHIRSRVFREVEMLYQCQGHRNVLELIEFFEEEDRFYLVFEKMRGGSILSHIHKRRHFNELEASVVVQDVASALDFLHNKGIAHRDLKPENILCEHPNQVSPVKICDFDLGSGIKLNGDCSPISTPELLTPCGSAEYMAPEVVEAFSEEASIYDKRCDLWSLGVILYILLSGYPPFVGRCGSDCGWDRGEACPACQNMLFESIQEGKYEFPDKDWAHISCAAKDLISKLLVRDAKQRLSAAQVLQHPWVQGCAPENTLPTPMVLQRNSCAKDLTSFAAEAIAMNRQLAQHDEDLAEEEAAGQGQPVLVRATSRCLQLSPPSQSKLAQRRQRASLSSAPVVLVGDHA
Description: (§2) Compounds of Formulae I and II were examined for activity against a selected panel of kinases using the KinaseProfiler™ enzyme profiling services (Upstate, Millipore Bioscience Division). Percent kinase activity at 10 μM and 1 μM test compound and 10 μM ATP was determined against 40 wild-type recombinant human kinases according to Upstate's standard protocol: ASK1, BTK, CSK, c-RAF, GCK, GSK3β, IKKα, IKKβ, IRAK1, IRAK4, JNK1α1, JNK2α2, JNK3, ERK1, ERK2, MAPKAP-K2, MAPKAP-K3, MEK1, MKK4, MKK6, MKK7β, Mnk2, MSK1, PAK3, PDK1, PRAK, ROCK1, Rsk2, SAPK2a, SAPK2b, SAPK3, SAPK4, SRPK1, SRPK2, Syk, TAK1, TBK1, PI3-Kβ, PI3-Kγ, PI3-Kδ.

ERK2 = molecular target: T2, ERK2 (Homo sapiens, UniProt P28482); experiment: Kinase panel screen (KinaseProfiler), ERK2; format: biochemical; conditions: 1 μM test compound, 10 μM ATP; read-out: Percent inhibition ERK2 at 1 μM
T2 construct: purchased Upstate, Millipore Bioscience Division (KinaseProfiler service)
T2 sequence (P28482 whole entry): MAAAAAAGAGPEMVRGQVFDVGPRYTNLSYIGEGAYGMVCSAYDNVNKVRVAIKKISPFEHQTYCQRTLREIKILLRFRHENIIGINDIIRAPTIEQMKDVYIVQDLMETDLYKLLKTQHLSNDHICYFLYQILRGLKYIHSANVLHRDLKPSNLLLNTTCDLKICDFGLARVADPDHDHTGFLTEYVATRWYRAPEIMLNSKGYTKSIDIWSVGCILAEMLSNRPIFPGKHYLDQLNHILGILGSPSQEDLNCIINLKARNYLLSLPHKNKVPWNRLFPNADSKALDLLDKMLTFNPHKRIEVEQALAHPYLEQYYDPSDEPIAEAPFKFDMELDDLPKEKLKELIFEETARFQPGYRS
Description: as §2

ERK1 = molecular target: T3, ERK1 (Homo sapiens, UniProt P27361); experiment: Kinase panel screen (KinaseProfiler), ERK1; format: biochemical; conditions: 1 μM test compound, 10 μM ATP
T3 construct: purchased Upstate, Millipore Bioscience Division (KinaseProfiler service)
T3 sequence (P27361 whole entry): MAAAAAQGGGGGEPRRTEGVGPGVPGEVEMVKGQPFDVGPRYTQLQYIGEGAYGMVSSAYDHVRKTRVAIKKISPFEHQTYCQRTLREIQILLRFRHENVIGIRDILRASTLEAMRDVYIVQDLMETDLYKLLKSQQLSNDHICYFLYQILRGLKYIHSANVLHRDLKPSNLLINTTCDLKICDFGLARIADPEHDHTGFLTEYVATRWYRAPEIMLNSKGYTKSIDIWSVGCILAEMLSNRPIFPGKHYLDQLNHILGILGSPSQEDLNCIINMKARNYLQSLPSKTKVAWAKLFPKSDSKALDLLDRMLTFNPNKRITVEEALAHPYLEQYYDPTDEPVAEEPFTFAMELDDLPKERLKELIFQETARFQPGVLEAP
Description: as §2

[3] = system: monocytes, endothelial cells, and lymphocytes; conditions: cited from earlier work
[4] = system: VEGF-induced angiogenesis; conditions: 100 μM; cited from earlier work
[5] = system: cytokine secretion from LPS-stimulated human monocytes; experiment: Human monocyte cytokine secretion assay (LPS-stimulated); format: cell-based
Description: Peripheral blood from healthy human volunteers was collected and the monocytes isolated via Ficoll-paque density centrifugation. […] The cells were allowed to pre-incubate with test compound at the indicated concentration for 30 minutes (37° C., 5% CO2, humidified air); after which the supernatant was removed and media containing compound and 1 ng/mL LPS was added. Cells were allowed to incubate with compounds and LPS for 4 hours at 37° C. after which the supernatant was removed and stored at −80° C. Cytokine concentrations in the supernatant were determined using commercially available Bio-Rad Bio-Plex™ kits according the manufacturer's instructions.

[6] = system: LPS-challenged BALB/c mice; experiment: LPS-induced neutrophilia and cytokine production assay; format: in vivo, mouse; conditions: for IL-1β levels in BALF: intratracheal administration, LPS-challenged animals
Description: Male BALB/c mice, approximately 19 to 21 grams, were ordered from Charles River Laboratories (Raleigh, N.C.). All animals were challenged with aerosolized LPS (10 μg/ml) for 25 minutes on study day 0. LPS aerosol was generated using an Aerogen Aeroneb nebulizer and controller providing a flow of 400 μl/min and a particle size of 2-4 μm MMAD. Rolipram was administered i.p at 20 mg/kg. […] Four hours following LPS challenge, BALF was collected using a total of 3 ml of 0.9% sodium chloride containing 10% fetal calf serum. Total cell counts were determined using the Coulter Counter. For differential evaluations, BALF was centrifuged and cytospin slides prepared and stained with Hema3 stain. Manual leukocyte counts were then completed on 200 cells. The final concentration of individual leukocyte cell types per ml of BALF was determined by multiplication of the relative percentage of individual leukocytes with the total amount of cells/ml of BALF fluid. The concentration of IL-1β in the BALF samples was determined using commercially available Bio-plex kits (Bio-Rad). The analysis of cytokine levels was measured using the Bio-Plex 200 (Bio-Rad) system according to the manufacturer's instructions.

[7] = Compound concentrations in lungs of ova-sensitized mice post IP, PO and IT administration; format: in vivo; conditions: male, Balb/c, mouse, lung, other: intratracheal (IT), BD model, IT 5 μmol/kg, read-out: Lung, nM (plasma corrected lung concentration)
Description: Additionally, compound concentrations were determined in the plasma and lungs of male, ovalbumin-sensitized, Balb/c mice from a murine model of asthma. Test compounds were formulated in water or 1% polysorbate 80 and dosed at 15 μmol/kg for intraperitoneal (IP) or oral (PO) administration or formulated for intratracheal (IT) administration and dosed at 5 μmol/kg, which directly targets the lungs. Following completion of the in vivo study, mice were euthanized and blood and plasma collected approximately 2.5-3 hours post administration of test compound for bronchodialator (BD) studies and 24 hours post administration for anti-inflamatory (AI) studies. Lungs were homogenized in Matrix A lysing tubes using a FastPrep 24 tissue and cell homogenizer (MP Biomedicals, Solon, Ohio). Both plasma samples and lung extracts were assayed for compound concentrations using an on-line, solid phase extraction LC/MS/MS system. The actual lung tissue concentrations of each compound in mouse were extrapolated from the lung and plasma concentrations, data are shown in Table 11. The results of a set of experiments using unsensitized mice and collecting only plasma 15 minutes post administration of test compounds are shown in Table 12.

[8] = Rat oral pharmacokinetics (plasma); format: in vivo; conditions: rat oral PK, mean of n = 3 rats
Description: Plasma (EDTA K2 anticoagulant) was collected from male, cannulated, CD Sprague Dawley rats to determine the pharmacokinetics of formulations containing compound inhibitors of Rho kinase. Each animal was dosed orally with a 4 ml/kg solution or suspension of each test compound in 10 mM acetate buffered saline, pH 4.5 at a final concentration range of 20-30 mol/kg. Blood was collected at 0.25, 0.5, 1, 2, 4, 6, 8, and 24 hours. Plasma samples were assayed for the concentration of the test compound using an on-line, solid phase extraction LC/MS/MS analysis system.
Pharmacokinetic analyses were performed using WinNonlin software version 5.2 (Pharsight Corporation, Mountain View, Calif.).
As determined from the plasma concentration versus time curves, the time to peak and peak exposure are represented by the values Tmax and Cmax, respectively. The AUC values (nM*hr) shown were calculated as the areas under the plasma concentration versus time curves from time zero through the time of the last observable value and represent the total exposure of the compound over the course of the study. Half-life values or the amount of time required for the plasma levels of the compound to decline to half the initial value are represented as t1/2.

human neutrophils = experiment: Human neutrophil chemotaxis (fMLP-induced, Boyden chamber); format: cell-based; conditions: average
Description: Peripheral blood from healthy human volunteers was collected and the neutrophils were isolated by Ficoll-paque density centrifugation followed by dextran sedimentation and hypotonic lysis of the red blood cells. Neutrophil chemotaxis was assessed using a modified Boyden Chamber (Neuroprobe, 96-well) with a 3 μm pore polycarbonate membrane. The ability of the tested compounds to block chemotaxis induced by a 1 μM fMLP challenge during a one hour incubation at 37° C. with 5% CO2 was assessed in a dose response manner.

[9] = system: A-10 rat thoracic aorta cells; experiment: PDGF-stimulated smooth muscle cell proliferation assay (BrdU incorporation); format: cell-based; conditions: average percent of PDGF stimulated proliferation at 1 μM test compound
Description: Effects on cell proliferation were measured using a bromodeoxyuridine (BrdU) incorporation assay. […] Serum free media containing 0.1% BSA was added to the cells. 24 hours later the media was removed and replaced with warmed serum free media. […] Proliferation was then monitored using the BrdU Cell Proiferation Assay, HTS (Calbiochem cat. # HTS01). BrdU was allowed to incorporate into cells for 24 hours prior to the addition of fixative/denaturing solution and the fluorometric detection of incorporated BrdU using a BrdU antibody as per manufacturer's directions. Data are reported as a percent of the PDGF-stimulated BrdU incorporation.

[10] = 15 μmol/kg/oral on days 27 to 31

Compound: CS(=O)(=O)Nc1cccc(CN2CC[C@@H](Nc3cccc4cnccc34)C2)c1 [Compound 2.038, (R)-N-(3-((3-(isoquinolin-5-ylamino)pyrrolidin-1-yl)methyl)phenyl)methanesulfonamide]
- airway hyperreactivity to metacholine on Day 32 ([1]; days 27 to 31): prevention of airway hyperreactivity
- inhibition of eotaxin-induced murine eosinophil chemotaxis (murine eosinophils): inhibited
- concentration of Eotaxin in BALF [2, 10]: reduced levels
- concentration of IL-5 in BALF [2, 10]: reduced levels
- concentration of IL-13 in BALF [2, 10]: reduced levels
- airway eosinophil infiltration (eosinophils per ml of BALF) [2]: reduced
- inhibition of eotaxin-induced human eosinophil chemotaxis (human eosinophils): inhibited

Compound: NC(=O)Cn1ccc2cc(CN3CCC[C@@H](Nc4ccc5[nH]ncc5c4)C3)ccc21 [Compound 1.162, (R)-2-(5-((3-(1H-indazol-5-ylamino)piperidin-1-yl)methyl)-1H-indol-1-yl)acetamide]
- Percent inhibition Mnk2 at 1 μM (Mnk2): 111

Compound: OCCn1ccc2cc(CN3CC[C@@H](Nc4cccc5cnccc45)C3)ccc21 [Compound 2.066, (R)-2-(5-((3-(isoquinolin-5-ylamino)pyrrolidin-1-yl)methyl)-1H-indol-1-yl)ethanol]
- airway hyperreactivity ([1]; days 27 to 31): prevention of airway hyperreactivity
- activity at 1 µM (ERK2): ~50%
- Percent inhibition Mnk2 at 1 μM (Mnk2): 99
- Percent inhibition at 1 µM (ERK1): ~50%

Compound: O=S(=O)(c1cccc2cnccc12)N1CCCNCC1 [Fasudil]
- expression of IL-1β, TNFα, and various other cytokines [3]: suppress expression
- new vessel formation [4]: new vessel formation was prevented

Compound: NC(=O)Cn1ccc2cc(CN3CC[C@@H](Nc4cccc5cnccc45)C3)ccc21 [Compound 2.059, (R)-2-(5-((3-(isoquinolin-5-ylamino)pyrrolidin-1-yl)methyl)-1H-indol-1-yl)acetamide]
- airway hyperreactivity ([1]; days 27 to 31): prevention of airway hyperreactivity
- activity at 10 µM ([5]; read-out: IL-6 % (Percent inhibition values for inhibition of cytokine secretion), 10 μM of test compound, 1 ng/mL LPS, 4 hours): 0%
- activity at 1 µM (ERK2): ~50%
- Percent inhibition Mnk2 at 1 μM (Mnk2): 49
- IL-1β levels in BALF [6]: reduction in IL-1β
- Percent inhibition at 1 µM (ERK1): ~50%

Compound: C[C@@H](N)[C@H]1CC[C@H](C(=O)Nc2ccncc2)CC1 [Compound Y-27632]
- expression of IL-1β, TNFα, and various other cytokines [3]: suppress expression

Compound: CS(=O)(=O)Nc1cccc(CN2CCC[C@H](Nc3ccc4[nH]ncc4c3)C2)c1 [Compound 1.091, (S)-N-(3-((3-(1H-indazol-5-ylamino)piperidin-1-yl)methyl)phenyl)methanesulfonamide]
- airway hyperreactivity ([1]; days 27 to 30): prevention of airway hyperreactivity
- activity at 10 µM ([5]; 10 μM of test compound, 1 ng/mL LPS, 4 hours, read-out: IL-1β % (Percent inhibition values for inhibition of cytokine secretion)): 166%
- eosinophil influx (BALF) ([2]; dosed i.t. to day 30, anti-inflammatory dosing paradigm): reduction of eosinophils
- concentration at 2.5 h [7]: 123 nM
- Cmax [8]: BLQ
- Tmax [8]: BLQ
- Vz_F [8]: BLQ
- t½ [8]: BLQ
- AUC (0-last) ([8]; time zero through last observable value): BLQ
- IL-1β levels in BALF [6]: reduction in IL-1β
- LPS-induced pulmonary neutrophilia influx (BALF) ([6]; intratracheal dosing one hour prior to LPS challenge): significant reduction

Compound: CS(=O)(=O)Nc1cccc(CN2CCC[C@@H](Nc3ccc4[nH]ncc4c3)C2)c1 [Compound 1.093, (R)-N-(3-((3-(1H-indazol-5-ylamino)piperidin-1-yl)methyl)phenyl)methanesulfonamide]
- IC50 (human neutrophils): 363 µM

Compound: Cc1ccc(CN2CCC[C@@H](Nc3ccc4[nH]ncc4c3)C2)cc1OCCO [Compound 1.161, (R)-2-(5-((3-(1H-indazol-5-ylamino)piperidin-1-yl)methyl)-2-methylphenoxy)ethanol]
- airway hyperreactivity ([1]; days 27 to 31): prevention of airway hyperreactivity
- Percent inhibition Mnk2 at 1 μM (Mnk2): 108
- Proliferation at 1 μM [9]: 50.0%

Compound: c1cc2cc(CN3CCC[C@@H](Nc4ccc5[nH]ncc5c4)C3)ccc2o1 [Compound 1.131, (R)-N-(1-(benzofuran-5-ylmethyl)piperidin-3-yl)-1H-indazol-5-amine]
- airway hyperreactivity to metacholine on Day 32 ([1]; days 27 to 31): prevention of airway hyperreactivity
- airway eosinophil infiltration (eosinophils per ml of BALF) [2]: reduced
- Vz_F [8]: 6.8 L/kg
